{"source": "patent US20220096512A1", "about": "“WATER-BASED ANTIFUNGAL COMPOSITIONS” (Sigma-Aldrich Co. LLC, priority 2019, published 2022)", "key": {"Aspergillus niger": {"system": "Aspergillus niger", "assay": "Diffusion disc MIC testing against Aspergillus niger", "type": "cell-based", "conditions": "diffusion paper disc, 10 μL applied, incubated overnight at 30° C., average of three experiments", "description": "(§1) Minimum inhibitory concentration (MIC) testing was determined for the inventive nystatin formulation described herein, along with comparative antifungal agents.\n(§2) Nystatin (Solid) and amphotericin were dissolved in DMF in 1 mg/mL. Econazole nitrate was dissolved in PBS to achieve 1 mg/mL. Nystatin formulation diluted with PBS to achieve the same potency as Nystatin (Solid).\n(§3) Antibiotic medium 19 was sterilized in autoclave, after sterilization when the temperature lowered to 45° C. and 1 mL from spore suspension was added. 8 mL from this mixture dispensed to each petri dish.\n(§4) On each dish 6 sterile diffusion paper disc were placed, 10 μL from each antibiotic were applied in 10, 15, 20, 25, 30, 35 μg/mL concentrations. Where MIC concentrations were below 10, lower concentrations were used: 2, 5, 7.5 μg/mL\n(§5) The petri dishes were incubated overnight at 30° C. The MIC were determined as the lower concentration that inhibition could be visualized."}, "Candida albicans": {"system": "Candida albicans", "assay": "Diffusion disc MIC testing against Candida albicans", "type": "cell-based", "conditions": "diffusion paper disc, 10 μL applied, incubated overnight at 30° C., average of three experiments", "description": "as §1, §2, §3, §4, §5"}}}
{"molecule": "C[C@@H]1[C@H](O)[C@@H](C)/C=C/C=C/C=C/C=C/C=C/C=C/C=C/[C@H](O[C@@H]2O[C@H](C)[C@@H](O)[C@H](N)[C@@H]2O)C[C@@H]2O[C@](O)(C[C@@H](O)C[C@@H](O)[C@H](O)CC[C@@H](O)C[C@@H](O)CC(=O)O[C@H]1C)C[C@H](O)[C@H]2C(=O)O", "note": "[Amphotericin, Amphotericin B]", "values": [{"measurement": "MIC", "setting": "Aspergillus niger; Aspergillus niger, read-out: Inhibition of Aspergillus niger (MIC, lower concentration at which inhibition could be visualized)", "value": 31.5, "unit": "µg/mL"}]}
{"molecule": "Clc1ccc(COC(Cn2ccnc2)c2ccc(Cl)cc2Cl)cc1", "note": "(stereo not shown) [Econazole, Econazole nitrate]", "values": [{"measurement": "Inhibition of Candida albicans (MIC, lower concentration at which inhibition could be visualized)", "setting": "Candida albicans", "value": "No inhibition"}, {"measurement": "Inhibition of Aspergillus niger (MIC, lower concentration at which inhibition could be visualized)", "setting": "Aspergillus niger", "value": "No inhibition"}]}
{"molecule": "C[C@@H]1[C@H](O)[C@@H](C)/C=C/C=C/CC/C=C/C=C/C=C/C=C/C(O[C@H]2O[C@H](C)[C@@H](O)[C@H](N)[C@@H]2O)CC2O[C@](O)(CC(O)C(O)CCC(O)CC(O)CC(O)CC(=O)O[C@H]1C)CC(O)C2C(=O)O", "note": "(stereo partly shown) [Nystatin]", "values": [{"measurement": "Inhibition of Candida albicans (MIC, lower concentration at which inhibition could be visualized)", "setting": "Candida albicans", "value": 14, "unit": "µg/mL"}, {"measurement": "Inhibition of Aspergillus niger (MIC, lower concentration at which inhibition could be visualized)", "setting": "Aspergillus niger", "value": 22.5, "unit": "µg/mL"}]}
{"molecule": "Nystatin Methyl ester", "values": [{"measurement": "Inhibition of Candida albicans (MIC, lower concentration at which inhibition could be visualized)", "setting": "Candida albicans", "value": 30, "unit": "µg/mL"}, {"measurement": "Inhibition of Aspergillus niger (MIC, lower concentration at which inhibition could be visualized)", "setting": "Aspergillus niger", "value": "No inhibition"}, {"measurement": "Inhibition of Aspergillus niger (MIC, lower concentration at which inhibition could be visualized)", "setting": "Aspergillus niger; listed as Nystatin methyl ester", "value": "no observed inhibition"}]}
{"molecule": "Polymixin B", "values": [{"measurement": "Inhibition of Candida albicans (MIC, lower concentration at which inhibition could be visualized)", "setting": "Candida albicans", "value": "No inhibition"}, {"measurement": "Inhibition of Aspergillus niger (MIC, lower concentration at which inhibition could be visualized)", "setting": "Aspergillus niger", "value": "No inhibition"}]}
